Assay results as given in PubChem BioAssay AID330 (DTP/NCI, 2004).
Values joined by “and” are separate entries in the source; they are usually repeats but may differ in a detail not shown here. Equal entries are not always repeated. Toxic doses and inconclusive results are not listed. The calls were made as follows: active = survival T/C of 150% or more; inactive = T/C below 125% in these data.

Tested on: P388 leukemia ip, CD2F1 mice, survival T/C
Assay: NCI In Vivo Anticancer Drug Screen. Data for tumor model P388 Leukemia (intraperitoneal) in CD2F1 (CDF1) mice
Conditions: endpoint: median survival time, higher = longer survival
Outline: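 Mice carrying the transplanted tumor received test compound or vehicle. Survival was recorded in each group, and the value is the treated-group measurement divided by that of the vehicle-treated control group.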

[1] = dose: 50.0 mg/kg/injection, schedule: Q01DX005 (ip), vehicle: Klucel (hydroxypropylcellulose) (HPC)
[2] = dose: 100.0 mg/kg/injection, schedule: Q01DX005 (ip), vehicle: Klucel (hydroxypropylcellulose) (HPC)
[3] = dose: 50.0 mg/kg/injection, schedule: Q01DX009 (ip), vehicle: saline with Tween-80
[4] = dose: 50.0 mg/kg/injection, schedule: Q01DX005 (ip), vehicle: saline with Tween-80
[5] = dose: 100.0 mg/kg/injection, schedule: Q01DX005 (ip), vehicle: saline with Tween-80
[6] = dose: 200.0 mg/kg/injection, schedule: Q01DX005 (ip), vehicle: saline with Tween-80
[7] = dose: 60.0 mg/kg/injection, schedule: Q01DX005 (ip), vehicle: saline
[8] = dose: 120.0 mg/kg/injection, schedule: Q01DX005 (ip), vehicle: saline
[9] = dose: 50.0 mg/kg/injection, schedule: Q01DX005 (ip), vehicle: saline
[10] = dose: 100.0 mg/kg/injection, schedule: Q01DX005 (ip), vehicle: saline
[11] = dose: 50.0 mg/kg/injection, schedule: Q01DX009 (ip), vehicle: Klucel (hydroxypropylcellulose) (HPC)
[12] = dose: 100.0 mg/kg/injection, schedule: Q01DX009 (ip), vehicle: Klucel (hydroxypropylcellulose) (HPC)
[13] = dose: 200.0 mg/kg/injection, schedule: Q01DX009 (ip), vehicle: Klucel (hydroxypropylcellulose) (HPC)
[14] = dose: 12.5 mg/kg/injection, schedule: Q01DX005 (ip), vehicle: saline
[15] = dose: 12.5 mg/kg/injection, schedule: Q01DX009 (ip), vehicle: Klucel (hydroxypropylcellulose) (HPC)
[16] = dose: 25.0 mg/kg/injection, schedule: Q01DX009 (ip), vehicle: Klucel (hydroxypropylcellulose) (HPC)

Measured: T/C

CN(C)c1ccc2c(SCC(=O)OCC(=O)C3(O)CCC4C5CCC6=CC(=O)C=CC6(C)C5C(O)CC43C)c3ccc(N(C)C)cc3nc2c1 (stereo not given)
inactive: dose: 12.5 mg/kg/injection, schedule: Q01DX005 (ip), vehicle: Klucel (hydroxypropylcellulose) (HPC) 98 % of control and 97 % of control | dose: 25.0 mg/kg/injection, schedule: Q01DX005 (ip), vehicle: Klucel (hydroxypropylcellulose) (HPC) 111 % of control and 93 % of control | [1] 123 % of control and 96 % of control | [2] 118 % of control and 122 % of control

O=c1[nH]c(=O)n([C@H]2CCCO2)cc1F
inactive: dose: 44.0 mg/kg/injection, schedule: Q01DX009 (ip), vehicle: Klucel (hydroxypropylcellulose) (HPC) 111 % of control | [3] 104 % of control | dose: 59.0 mg/kg/injection, schedule: Q01DX009 (ip), vehicle: Klucel (hydroxypropylcellulose) (HPC) 114 % of control | dose: 90.0 mg/kg/injection, schedule: Q01DX009 (ip), vehicle: Klucel (hydroxypropylcellulose) (HPC) 124 % of control | dose: 142.0 mg/kg/injection, schedule: Q04DX003 (ip), vehicle: Klucel (hydroxypropylcellulose) (HPC) 109 % of control | dose: 189.0 mg/kg/injection, schedule: Q04DX003 (ip), vehicle: Klucel (hydroxypropylcellulose) (HPC) 115 % of control | dose: 200.0 mg/kg/injection, schedule: Q01DX009 (ip), vehicle: saline with Tween-80 93 % of control | dose: 201.0 mg/kg/injection, schedule: Q01DX009 (ip), vehicle: Klucel (hydroxypropylcellulose) (HPC) 95 % of control | dose: 316.0 mg/kg/injection, schedule: Q01DX001 (ip), vehicle: Klucel (hydroxypropylcellulose) (HPC) 107 % of control | dose: 421.0 mg/kg/injection, schedule: Q01DX001 (ip), vehicle: Klucel (hydroxypropylcellulose) (HPC) 115 % of control | dose: 641.0 mg/kg/injection, schedule: Q01DX001 (ip), vehicle: Klucel (hydroxypropylcellulose) (HPC) 120 % of control | dose: 645.0 mg/kg/injection, schedule: Q04DX003 (ip), vehicle: Klucel (hydroxypropylcellulose) (HPC) 120 % of control

OC(CI)C(O)C(O)C(O)CI (stereo not given)
inactive: dose: 100.0 mg/kg/injection, schedule: Q01DX009 (ip), vehicle: saline with Tween-80 105 % of control and 115 % of control | dose: 100.0 mg/kg/injection, schedule: Q01DX009 (ip), vehicle: saline 98 % of control | dose: 100.0 mg/kg/injection, schedule: Q04DX003 (ip), vehicle: saline with Tween-80 100 % of control and 104 % of control | dose: 132.0 mg/kg/injection, schedule: Q01DX009 (ip), vehicle: saline with Tween-80 122 % of control | dose: 200.0 mg/kg/injection, schedule: Q01DX009 (ip), vehicle: saline 91 % of control | dose: 200.0 mg/kg/injection, schedule: Q04DX003 (ip), vehicle: saline with Tween-80 104 % of control and 113 % of control | dose: 400.0 mg/kg/injection, schedule: Q01DX009 (ip), vehicle: saline 105 % of control | dose: 400.0 mg/kg/injection, schedule: Q04DX003 (ip), vehicle: saline with Tween-80 100 % of control and 113 % of control | dose: 500.0 mg/kg/injection, schedule: Q01DX009 (ip), vehicle: saline 96 % of control

COc1ccc2c(c1OC)C(=O)OC2
inactive: [1] 90 % of control | [2] 90 % of control | dose: 200.0 mg/kg/injection, schedule: Q01DX005 (ip), vehicle: Klucel (hydroxypropylcellulose) (HPC) 90 % of control

COSOC
inactive: dose: 7.5 mg/kg/injection, schedule: Q04DX003 (ip), vehicle: Klucel (hydroxypropylcellulose) (HPC) 105 % of control | dose: 15.0 mg/kg/injection, schedule: Q04DX003 (ip), vehicle: Klucel (hydroxypropylcellulose) (HPC) 104 % of control | dose: 30.0 mg/kg/injection, schedule: Q04DX003 (ip), vehicle: Klucel (hydroxypropylcellulose) (HPC) 98 % of control

COc1ccc(S(=O)(=O)N/N=C\c2cc([N+](=O)[O-])cc([N+](=O)[O-])c2O)c(OC)c1OC
inactive: [4] 102 % of control | [5] 107 % of control | [6] 99 % of control

Cc1oc2ccccc2c(=O)c1CN1CCN(C)CC1
inactive: [7] 101 % of control | [8] 103 % of control

Nc1ccc(-c2c3ccccc3nc3cc(N)ccc23)cc1
inactive: [9] 118 % of control | [10] 115 % of control

O=C(c1ccccc1)C(c1ccccc1)n1nc2c(c1-c1ccccc1)CCCC2 (stereo not given)
inactive: [11] 98 % of control | [12] 91 % of control | [13] 97 % of control

NCCC(=O)NCCSSCCNC(=O)CCN
inactive: dose: 100.0 mg/kg/injection, schedule: Q04DX003 (ip), vehicle: saline 112 % of control | dose: 200.0 mg/kg/injection, schedule: Q04DX003 (ip), vehicle: saline 111 % of control

CC1(C)C(=O)C2(CCCCC2)C1N1CCCCC1 (stereo not given)
inactive: [11] 96 % of control | [12] 98 % of control | [13] 107 % of control

COC(=O)C1CC(O)CC(C(=O)OC)O1 (stereo not given)
inactive: [7] 96 % of control | [8] 90 % of control

CC(=O)Oc1ccccc1O
inactive: dose: 25.0 mg/kg/injection, schedule: Q01DX009 (ip), vehicle: saline + Tween-80 + alcohol 106 % of control | dose: 50.0 mg/kg/injection, schedule: Q01DX009 (ip), vehicle: saline + Tween-80 + alcohol 101 % of control and 105 % of control and 116 % of control | dose: 100.0 mg/kg/injection, schedule: Q01DX009 (ip), vehicle: saline + Tween-80 + alcohol 109 % of control and 115 % of control

CC(C)NCC(O)COc1cccc2[nH]c3ccccc3c12 (stereo not given)
inactive: dose: 25.0 mg/kg/injection, schedule: Q01DX009 (ip), vehicle: saline with Tween-80 99 % of control | [3] 96 % of control

COc1cc(NC(C)CCCN)c2ncc(Br)cc2c1 (stereo not given)
inactive: dose: 6.25 mg/kg/injection, schedule: Q01DX005 (ip), vehicle: saline 95 % of control | [14] 91 % of control

N=c1nc2ccc3ccccc3c2nn1-c1ccc([N+](=O)[O-])cc1
inactive: dose: 1.5 mg/kg/injection, schedule: Q01DX009 (ip), vehicle: Klucel (hydroxypropylcellulose) (HPC) 108 % of control | dose: 3.0 mg/kg/injection, schedule: Q01DX009 (ip), vehicle: Klucel (hydroxypropylcellulose) (HPC) 106 % of control | dose: 6.0 mg/kg/injection, schedule: Q01DX009 (ip), vehicle: Klucel (hydroxypropylcellulose) (HPC) 108 % of control | [15] 103 % of control | [16] 108 % of control | [11] 119 % of control

COc1nc(C(O)C2OC(C)(C)OCC2O)[nH]c1C#N (stereo not given)
inactive: [11] 106 % of control | [12] 102 % of control and 91 % of control | [13] 103 % of control and 110 % of control

Cc1cccc(NC(N)=S)n1
inactive: dose: 12.5 mg/kg/injection, schedule: Q01DX009 (ip), vehicle: other 108 % of control | dose: 25.0 mg/kg/injection, schedule: Q01DX009 (ip), vehicle: other 98 % of control | dose: 50.0 mg/kg/injection, schedule: Q01DX009 (ip), vehicle: other 115 % of control | dose: 100.0 mg/kg/injection, schedule: Q01DX009 (ip), vehicle: other 119 % of control

C[C@H]1CC(=O)C[C@H]2CCCCN21
inactive: [14] 103 % of control | dose: 25.0 mg/kg/injection, schedule: Q01DX005 (ip), vehicle: saline 105 % of control | [9] 101 % of control

Cc1[nH]c(C)c(Br)c(=O)c1F
inactive: dose: 6.25 mg/kg/injection, schedule: Q01DX009 (ip), vehicle: Klucel (hydroxypropylcellulose) (HPC) 116 % of control | [15] 110 % of control | [16] 100 % of control

Nc1c(-c2noc(=O)[nH]2)ncn1Cc1ccccc1
inactive: dose: 100.0 mg/kg/injection, schedule: Q01DX001 (ip), vehicle: Klucel (hydroxypropylcellulose) (HPC) 97 % of control | dose: 200.0 mg/kg/injection, schedule: Q01DX001 (ip), vehicle: Klucel (hydroxypropylcellulose) (HPC) 92 % of control | dose: 400.0 mg/kg/injection, schedule: Q01DX001 (ip), vehicle: Klucel (hydroxypropylcellulose) (HPC) 99 % of control

C=CCSCC1Nc2cc(Cl)c(S(N)(=O)=O)cc2S(=O)(=O)N1C (stereo not given)
inactive: [4] 100 % of control | [5] 105 % of control | [6] 101 % of control

COc1cccc(NCCCSC)c1
inactive: [9] 102 % of control | [10] 116 % of control

O=C(c1ccc(Cl)cc1)c1cc2c(ccc3ccccc32)oc1=O
inactive: dose: 6.25 mg/kg/injection, schedule: Q01DX009 (ip), vehicle: saline 91 % of control | dose: 12.5 mg/kg/injection, schedule: Q01DX009 (ip), vehicle: saline 95 % of control | dose: 25.0 mg/kg/injection, schedule: Q01DX009 (ip), vehicle: saline 104 % of control
